Measurements reported in publication PMC2376372, “3-Bromophenyl 6-acetoxymethyl-2-oxo-2H-1-benzopyran-3-carboxylate inhibits cancer cell invasion in vitro and tumour growth in vivo” (British Journal of Cancer, 2003).

Columns and labels:
[1] = system: HT1080 cells; assay: Tumorigenicity of HT1080 cells injected s.c. with matrigel in nude mice; assay type: in vivo; settings: 30 mg kg^−1 i.p. three times per week; for effect on tumour growth (tumour volume), HT1080: ANOVA; for time after cell inoculation to reach a tumour incidence of 50%: tumours higher than 80 mm^3
Protocol: Matrigel (basement membrane proteins) was extracted from the mouse Engelbreth–Holm–Swarm (EHS) tumour as previously described ([Noël et al, 1991]). Tumoral cells were detached by trypsinisation, harvested by centrifugation, resuspended in 0.25 ml of serum-free medium and mixed with an equal volume of cold matrigel (10 mg ml^−1). The suspension (1 × 10^6 cells injection site^−1) was injected subcutaneously (s.c.) on both body flanks of 6–8-week-old female athymic nude mice (n=6; nu/nu Swiss mice from Iffa credo, L'Arbresle, France). The coumarin derivatives in PBS were injected intraperitoneally (30 mg kg^−1) three times per week during the whole assay.
The tumorigenicity defines the capacity of cells to induce tumour formation. The larger (a) and smaller (b) diameters of the apparent tumour were measured and served for tumour volume calculation according to a × b^2 × 0.4 ([Attia and Weiss, 1966]). Injected mice were examined weekly. Tumours presenting a volume higher than 80 mm^3 and which maintained a progressive growth were taken into account ([Noël et al, 1992]). Results are expressed as the mean (±s.e.m.) of the tumour volumes.

[2] = system: MMP-2 and MMP-9; assay: Gelatin zymography of HT1080 conditioned medium; assay type: biochemical, human; settings: 1–100 μM in HT1080 conditioned medium
Protocol: The culture medium of human fibrosarcoma HT1080 cells (DMEM) was removed and concentrated 20-fold in a Vivaspin 6 ml concentrator. It was incubated for 30 min at ambient temperature in nonreducing sample buffer and run under Laemmli conditions ([Laemmli, 1970]) by loading a volume of 25 μl onto 7.5% polyacrylamide gels containing 0.1% sodium dodecyl sulphate (SDS), 2 mg ml^−1 casein and 0.16 μM human plasminogen. Following electrophoresis, gels were incubated for 1 h in 2.5% (v v^−1) Triton X-100 for removal of SDS and then for 1 h at 37°C in 50 mM Tris-HCl, 0.1 M NaCl, pH 7.6. Plasminogen activator (PA) activity was visualised as clear bands of lysis upon staining with 0.1% Coomassie blue R250. Purified human high-molecular-weight two-chain urokinase plasminogen activator (HMW-uPA) and low-molecular-weight urokinase plasminogen activator (LMW-uPA) were run in each gel as positive controls. An analogous protocol was followed to detect enzymatic activities towards MMP-2 and MMP-9 except that the 7% SDS–PAGE contained 1 mg ml^−1 bovine gelatin. The gels were incubated at 37°C for about 18 h in 5 mM Tris, pH 7.6 containing 0.2 M NaCl, 5 mM CaCl2 and 0.02 (w v^−1) Brij35. Protein staining was performed during 1 h with a 0.25% solution of Coomassie brillant blue R250 in 50% methanol and 7% acetic acid and destaining in a solution of 20% methanol and […]. […]

[3] = system: HT1080 fibrosarcoma cells; assay: Chemotaxis assay, uncoated Transwell inserts; assay type: cell-based, human; settings: Homo sapiens, HT-1080, 4 h, uncoated filters
Protocol: HT1080 cells exponentially growing in T-75 flasks (Nunc, Costar, Netherlands) were collected by trypsin–ethylenediaminetetraacetic acid treatment, washed with serum-containing medium and allowed to recover from trypsinisation for at least 30 min at 37°C. Cells were then washed twice in serum-free DMEM and diluted in the same medium supplemented with 0.1% bovine serum albumin (BSA, fraction V, Sigma, USA) to a cell density of 6 × 10^5 cells ml^−1.
The influence of coumarin derivatives (0.1, 1 and 10 μM) on HT1080 cell invasion and migration was assayed using Transwell cell culture inserts (Costar) and compared to the reference compound GI 129471 (1 μM), an MMP inhibitor ([Wheeler et al, 1998]).
For chemoinvasion assays, type IV collagen-coated membranes (see above) were used, whereas uncoated membranes were employed for chemotaxis assays. Lower wells of chambers were filled with DMEM supplemented with 20% FCS and 1% BSA (fraction V, ICN) as chemoattractant, in the presence or absence of coumarin derivative (final concentration 0.1, 1 and 10 μM) or GI 129471 (final concentration 1 μM). Cells (6 × 10^4) suspended in DMEM supplemented with 0.1% BSA (fraction V, ICN) were seeded in the upper wells. Chambers were subsequently incubated for 48 and 4 h for chemoinvasion and chemotaxis assays, respectively, in a humid atmosphere at 37°C (in order to maintain a chemotactic gradient, media from both lower and upper wells were renewed after 24 h). After incubation, filters were removed from the chambers, fixed in 4% paraformaldehyde for 15 min (4°C), permeabilised for 10 min in methanol (−20°C) and stained with Giemsa (4%) for 15 min. The upper surface of the filters was scrapped with a cotton swab and cells having reached the lower surface of the filters were visually counted using a light microscope (Vanox AH3, Olympus, Hamburg, Germany) at 20-fold magnification. Each assay was performed in triplicate. Results were expressed as percentages (±s.d.) of the migration of control cells.

Row | SMILES | effect on tumour growth (tumour volume), HT1080 [1] | time after cell inoculation to reach a tumour incidence of 50% [1] [days] | effect on gelatinolytic activities of conditioned culture medium (gelatin zymography) [2] | inhibition at 0.1 µM ([3]; 0.1 μM) [%] | inhibition at 1 µM [3] [%] | inhibition at 10 µM ([3]; 10 μM) [%] | effect on tumour incidence, HT1080 ([1]; log Rank test, P<0.004)
1 | CC(=O)OCc1ccc2oc(=O)c(C(=O)Oc3cccc(Cl)c3)cc2c1 [compound 4, 3-chlorophenyl 6-acetoxymethyl-2-oxo-2H-1-benzopyran-3-carboxylate] | did not significantly affect tumour growth | 26 | did not abrogate | 20 | 50 | 80 | –
2 | CC(=O)OCc1ccc2oc(=O)c(C(=O)Oc3cccc(Br)c3)cc2c1 [compound 7, 3-bromophenyl 6-acetoxy-methyl-2-oxo-2H-1-benzopyran-3-carboxylate] | significantly reduced the tumour growth | 48 | did not abrogate | – | ~30 | – | reduce both the incidence
